Patent US20240245617A1, “LIPID-BASED TOPICAL INJECTION FORMULATIONS” (Beijing Jitai Pharmaceutical Technology Co., Ltd., priority 2022, published 2024)

Tested on: C57BL/6 mice
Test: In vivo bioluminescence after intravenous administration of lipid nanoparticles encapsulating luciferase mRNA
Settings: 0.5 mg/kg mRNA, liver
Protocol: The delivery effect and safety of nanoparticles encapsulating luciferase mRNA (Trilink, L-7202) in mice were evaluated. The test mice were SPF-grade C57BL/6 mice, female, 6-8 weeks old, weighing 18-22 g, and were purchased from SPF (Beijing) Biotechnology Co., Ltd. All animals were acclimatized for more than 7 days prior to the experiment, and had free access to food and water during the experiment. The conditions include alternating light and dark for 12/12 h, the indoor temperature of 20-26° C. and the humidity of 40-70%. The mice were randomly grouped. The lipid nanoparticles encapsulating luciferase mRNA prepared above were injected into mice by intravenous administration at a single dose of 0.5 mg/kg mRNA, and the mice were subjected to in vivo bioluminescence assay using a Small Animal In Vivo Imaging System (IVIS LUMINA III, purchased from PerkinElmer) at 6 h after administration. The assay was performed as follows: D-luciferin solution was prepared in saline at a concentration of 15 mg/mL, and each mouse was given the substrate by intraperitoneal injection. At ten minutes after administration of the substrate, the mice were anesthetized in an anesthesia chamber with isoflurane at a concentration of 2.5%. […] Data acquisition and analysis were performed on the liver.
The in vivo delivery efficiency of lipid nanoparticle carriers was expressed as the mean values of fluorescence intensity and total photon count in different animals within the same subject group, as shown in Table 4. Higher values of fluorescence intensity and total photon count indicate higher in vivo delivery efficiency of this mRNA fragment by lipid nanoparticles. The lipid nanoparticles containing the cationic lipids of the present disclosure have good in vivo delivery efficiency and mainly target the liver.

Compound | Total photon count in vivo at 6 hours after administration (Total Flux)
CCCCCCCCCSC(=O)C(C)(C)CCCCCC(CCCCCC(C)(C)C(=O)SCCCCCCCCC)OC(=O)CC1CCN(C)CC1 [Compound 108] | 1.21E+10
CCCCCCCCCSC(=O)C(C)(C)CCCCCC(CCCCCC(C)(C)C(=O)SCCCCCCCCC)OC(=O)CC1CCN(CC)CC1 [Compound 109] | 1.32E+10
CCCCCCCCCOC(=O)C(C)(C)CCCCCC(CCCCCC(C)(C)C(=O)OCC(CCCCC)CCCCCCC)OC(=O)CC1CCN(C)CC1 (stereo not shown) [Compound 111] | 1.79E+10
CCCCCCCCCSC(=O)C(C)(C)CCCCCC(CCCCCC(C)(C)C(=O)OCC(CCCCC)CCCCCCC)OC(=O)CC1CCN(C)CC1 (stereo not shown) [Compound 112] | 3.53E+10
CCCCCCCC#CCOC(=O)C(C)(C)CCCCCC(CCCCCC(C)(C)C(=O)OCCCC(CCCCC)CCCCC)OC(=O)CCCN(C)C (stereo not shown) [Compound 115] | 2.56E+10
CCCCCCCC#CCOC(=O)C(C)(C)CCCCCC(CCCCCC(C)(C)C(=O)OCC(CCCCC)CCCCCCC)OC(=O)CCCN(C)C (stereo not shown) [Compound 116] | >4.00E+10
CCCCC(CC#CCOC(=O)C(C)(C)CCCCCC(CCCCCC(C)(C)C(=O)OCC#CCC(CCCC)CCCC)OC(=O)CCCN(C)C)CCCC [Compound 117] | 4.48E+09
CCCCCCCCCOC(=O)C(C)(C)CCCCCC(CCCCCC(C)(C)C(=O)OCC#CC(CCCCCC)CCCCCC)OC(=O)CCCN(C)C (stereo not shown) [Compound 118] | 3.14E+10
CCCCCCCCCOC(=O)C(C)(C)CCCCC(CCCCC(C)(C)C(=O)OCC(CCCCC)CCCCCCC)OC(=O)CCCN(C)C (stereo not shown) [Compound 122] | >4.00E+10
CCCCCCCCCCOC(=O)C(C)(C)CCCCC(CCCCC(C)(C)C(=O)OCC(CCCCC)CCCCCCC)OC(=O)CCCN(C)C (stereo not shown) [Compound 123] | >4.00E+10
CCCCCCCCCOC(=O)C(C)(C)CCCCCCC(CCCCCCC(C)(C)C(=O)OCC(CCCCC)CCCCCCC)OC(=O)CCCN(C)C (stereo not shown) [Compound 125] | 1.99E+10
CCCCCCCCCOC(=O)C(C)(C)CCCCCCC(CCCCCCC(C)(C)C(=O)OCC(CCCCC)CCCCCCC)OC(=O)CCCCN(C)C (stereo not shown) [Compound 126] | 1.77E+10
CCCCCCC(CCCCCC)CCOC(=O)CCC(C)(C)CCCC(CCCC(C)(C)CCC(=O)OCCC(CCCCCC)CCCCCC)OC(=O)CCCN(C)C [Compound 128] | 1.00E+10
CCCCCCCC(CCCCCCC)COC(=O)CCC(C)(C)CCCC(CCCC(C)(C)CCC(=O)OCC(CCCCCCC)CCCCCCC)OC(=O)CCCN(C)C [Compound 129] | 7.82E+09
CCCCCCCCCOC(=O)CCCCCCC(CCCCCCC(=O)OCCCCCCCCC)OC(=O)CCCN(C)C [Compound 130] | 4.45E+07
CCCCCCCCCOC(=O)CCCCCCC(CCCCCCC(=O)OCC(CCCCC)CCCCCCC)OC(=O)CCCN(C)C (stereo not shown) [Compound 131] | 1.57E+09
